Reference: patent US10543132B2, “Absorbent article with blood modifying agent” (UNICHARM CORPORATION, priority 2011, dated 2020)

Assays:
[1] = From the text: As used herein, the term “solubility” in regard to water solubility includes cases where the sample completely dissolves in deionized water to form a homogeneous mixture, and cases where the sample is completely emulsified. As used herein, “completely” means that no mass of the sample remains in the deionized water.
[2] = at 20° C.; cited from earlier work
[3] = Surface tension of blood containing blood modifying agent, pendant drop method (Example 6); settings: sheep defibrinated blood; amount 0.10 mass %; 35 ° C.; without agent 62.1
Procedure: The surface tension of blood containing a blood modifying agent was measured by the pendant drop method, using a Drop Master500 contact angle meter by Kyowa Interface Science Co., Ltd. The surface tension was measured after adding a prescribed amount of blood modifying agent to sheep defibrinated blood, and thoroughly shaking. The measurement was accomplished automatically with a device, and the […] γ was determined by the following formula (see FIG. 4). γ=g×ρ×(de)^2×1/H The density ρ was measured at the temperatures listed in Table 5, according to JIS K 2249-1995, “Density test methods and density/mass/volume conversion tables”, “5. Vibrating density test method”. The measurement was accomplished using a DA-505 by Kyoto Electronics Co., Ltd.

CC(C)CCCCCCCCCCCCCCCOC(=O)CC(O)C(=O)OCCCCCCCCCCCCCCCC(C)C (stereo not shown) [Diisostearyl malate, Diisostearyl Malate]
Water solubility (g) [1]: 20< g

CCCCC(=O)CCCC [5-nonanone]
vapor pressure [2]: about 230 Pa

CCCCCCCCCCCCOC(=O)CCCCCCCCCCC [ELECTOL WE20, Ester of dodecanoic acid (C12) and dodecyl alcohol (C12)]
Surface tension (mN/m) [3]: 58.8 mN/m

CCCCC(CC)C(=O)OCC(COC(=O)C(CC)CCCC)OC(=O)C(CC)CCCC (stereo not shown) [PANACET 800B]
Water solubility [1]: <0.05 g

CCCCCCCC(=O)OCC(COC(=O)CCCCCCC)OC(=O)CCCCCCC [PANACET 800]
Water solubility [1]: <0.05 g

CCCCC(CC)C(=O)OCC(C)(C)COC(=O)C(CC)CCCC (stereo not shown) [H-208BRS, Neopentylglycol di-2-ethylhexanoate]
Water solubility [1]: <0.05 g

CCCCOC(=O)CC(CC(=O)OCCCC)(OC(C)=O)C(=O)OCCCC [Tributyl O-acetylcitrate, Tributyl O-Acetylcitrate]
Water solubility [1]: <0.05 g
